We go through 28 compounds from patent publication US12281057B2 (VERTEX PHARMACEUTICALS INCORPORATED, priority 2017, dated 2025).

truncated form of human NaV 1.8 with full channel activity, sequence (Q9Y5Y9 126-1722 limits assumed): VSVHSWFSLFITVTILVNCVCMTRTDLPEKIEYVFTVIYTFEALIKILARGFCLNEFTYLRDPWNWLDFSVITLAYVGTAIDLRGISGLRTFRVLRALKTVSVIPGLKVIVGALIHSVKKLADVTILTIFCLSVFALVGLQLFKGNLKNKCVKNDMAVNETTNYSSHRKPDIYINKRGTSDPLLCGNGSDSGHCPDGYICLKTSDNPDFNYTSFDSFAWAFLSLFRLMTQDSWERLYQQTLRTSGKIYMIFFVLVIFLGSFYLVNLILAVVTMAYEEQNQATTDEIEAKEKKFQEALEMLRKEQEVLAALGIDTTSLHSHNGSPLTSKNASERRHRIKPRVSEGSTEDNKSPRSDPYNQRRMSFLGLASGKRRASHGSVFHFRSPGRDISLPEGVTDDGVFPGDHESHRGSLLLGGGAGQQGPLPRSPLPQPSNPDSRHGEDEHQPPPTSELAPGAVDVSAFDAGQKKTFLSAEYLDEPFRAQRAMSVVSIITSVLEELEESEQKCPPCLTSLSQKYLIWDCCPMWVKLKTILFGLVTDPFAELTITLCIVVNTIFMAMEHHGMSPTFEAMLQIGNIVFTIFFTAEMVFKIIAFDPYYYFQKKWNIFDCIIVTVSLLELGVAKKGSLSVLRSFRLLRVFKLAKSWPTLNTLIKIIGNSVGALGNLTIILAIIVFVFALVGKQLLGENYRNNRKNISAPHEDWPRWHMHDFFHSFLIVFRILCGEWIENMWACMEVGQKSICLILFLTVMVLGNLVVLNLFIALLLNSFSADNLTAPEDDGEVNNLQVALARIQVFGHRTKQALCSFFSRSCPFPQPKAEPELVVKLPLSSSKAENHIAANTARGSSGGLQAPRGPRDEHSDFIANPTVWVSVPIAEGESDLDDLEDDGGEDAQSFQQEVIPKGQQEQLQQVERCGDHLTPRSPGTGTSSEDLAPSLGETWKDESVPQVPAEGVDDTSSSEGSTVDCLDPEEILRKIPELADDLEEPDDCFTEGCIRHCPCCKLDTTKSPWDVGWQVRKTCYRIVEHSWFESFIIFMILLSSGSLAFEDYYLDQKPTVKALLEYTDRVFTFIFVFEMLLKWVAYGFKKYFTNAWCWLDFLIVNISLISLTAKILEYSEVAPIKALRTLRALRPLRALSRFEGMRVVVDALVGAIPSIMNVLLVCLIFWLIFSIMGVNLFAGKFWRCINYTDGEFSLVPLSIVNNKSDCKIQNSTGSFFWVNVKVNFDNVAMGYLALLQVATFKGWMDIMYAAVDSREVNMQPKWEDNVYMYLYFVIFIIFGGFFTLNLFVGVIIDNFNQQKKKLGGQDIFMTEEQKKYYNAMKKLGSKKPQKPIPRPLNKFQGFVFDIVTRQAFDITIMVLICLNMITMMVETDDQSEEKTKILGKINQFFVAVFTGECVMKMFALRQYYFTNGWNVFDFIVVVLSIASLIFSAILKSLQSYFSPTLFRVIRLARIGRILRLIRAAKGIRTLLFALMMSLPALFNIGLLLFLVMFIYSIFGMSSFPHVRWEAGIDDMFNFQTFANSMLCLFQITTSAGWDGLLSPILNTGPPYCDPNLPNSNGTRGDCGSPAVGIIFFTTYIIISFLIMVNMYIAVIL

This test has as its target truncated form of human NaV 1.8 with full channel activity (Homo sapiens, UniProt Q9Y5Y9). Kind of test: E-VIPR Assay Method B for detecting and measuring Nav inhibition (HEK cells, membrane potential FRET dyes, electrical stimulation). Format: cell-based. To be noted: HEK cells expressing human NaV 1.8, Table 20B, read-out: Nav 1.8 MedChem Optical Assay EVIPR Assay Method B HS IC50. The text has this:
[formula] where X is the ratio response of the test compound. […] E-VIPR Assay Method B for Detecting and Measuring Nav Inhibition Properties Sodium ion channels are voltage-dependent proteins that can be activated by inducing membrane voltage changes by applying electric fields. The electrical stimulation instrument and methods of use, referred to as E-VIPR, are described in International Publication No. WO 2002/008748 A3 and C.-J. Huang et al. Characterization of voltage-gated sodium channel blockers by electrical stimulation and fluorescence detection of membrane potential, 24 Nature Biotech. 439-46 (2006), both of which are incorporated by reference in their entirety. The instrument comprises a microtiter plate handler, an optical system for exciting the coumarin dye while simultaneously recording the coumarin and oxonol emissions, a waveform generator, a current- or voltage-controlled amplifier, and parallel electrode pairs that are inserted into assay plate wells. Under integrated computer control, this instrument passes user-programmed electrical stimulus protocols to cells within the wells of the microtiter plate. […] Sigma #F4135), 1% NEAA (Non-Essential Amino Acids, Life Tech #11140), 1% HEPES (Life Tech #15630), 1% Pen-Strep (Penicillin-Streptomycin; […] Cells were expanded in vented cap flasks, with 95% humidity and 5% CO2. Reagents and Stock Solutions: • 100 mg/mL Pluronic F-127 (Sigma #P2443), in dry DMSO • Compound Plates: […] 5% KIR 2.1 Bacmam virus (produced in-house), prepared as described in Section 3.3 of J. A. Fornwald et al., Gene Expression in Mammalian Cells Using BacMam, a Modified Baculovirus System, 1350 Methods in Molecular Biology 95-116 (2016), the entire contents of which are incorporated by reference. • 5 mM DiSBAC6(3) (a voltage sensitive oxonol acceptor) (Aurora #00-100-010) in dry DMSO • 5 mM CC2-DMPE (a membrane-bound coumarin phospholipid FRET donor) (Aurora #00-100-008) in dry DMSO • 89 mM VABSC-1 in H2O. […] The solution was made by adding 10% Pluronic F127 stock equal to combined volumes of CC2-DMPE and DiSBAC6(3). The order of preparation was first mix Pluronic and CC2-DMPE, then add DiSBAC6(3), then while vortexing add Bath1/β-Cyclodextrin. […] Assay Protocol: […] Final DMSO concentration for all wells in the assay was 0.625% (0.75% DMSO was supplemented to the Compound Loading Buffer for a final DMSO concentration of 0.625%). 2) Hexyl Dye Solution was prepared. 3) Cell plates were prepared. On the day of the assay, the media was aspirated, and the cells were washed three times with 80 μL of Bath-1 buffer, maintaining 25 μL residual volume in each well. 4) 25 μL per well of Hexyl Dye Solution was dispensed into the cell plates. The cells were incubated for 20 minutes at room temp or ambient conditions in darkness. 5) 80 μL per well of Compound Loading Buffer was dispensed into compound plates. […] The mixture was incubated for 30 minutes at room temp/ambient conditions. […] A pre-stimulus recording was performed for 0.5 seconds to obtain the un-stimulated intensities baseline. The stimulatory waveform was followed by 0.5 seconds of post-stimulation recording to examine the relaxation to the resting state. Data Analysis: Data were analyzed and reported as normalized ratios of emission intensities measured in the 460 nm and 580 nm channels. The response as a function of time was reported as the ratios obtained using the following formula: [formula] The data were further reduced by calculating the initial (Ri) and final (Rf) ratios. These were the average ratio values during part or all of the pre-stimulation period and during sample points during the stimulation period. The fluorescence ratio (Rf/Ri) was then calculated and reported as a function of time. Control responses were obtained by performing assays in the presence of the positive control, and in the absence of pharmacological agents (DMSO vehicle negative control). Responses to the negative (N) and positive (P) controls were calculated as above. […]
By IC50 is commonly meant the midpoint of a concentration-inhibition curve. Consider `CC(C)(C)c1ccc(C(=O)Nc2cncc(C(N)=O)c2)c(Oc2ccc(C(F)(F)F)nc2)c1` [Compound 261, 5-(4-(tert-butyl)-2-((6-(trifluoromethyl)pyridin-3-yl)oxy)benzamido)nicotinamide], for which the IC50 turned out to be 1200 nM.

As for `COc1ccc(Oc2ccc(C(F)(F)F)cc2C(=O)Nc2cccc(C(N)=O)c2)c(Cl)c1` [Compound 279, N-(3-carbamoylphenyl)-2-(2-chloro-4-methoxyphenoxy)-5-(trifluoromethyl)benzamide], the IC50 came to 56 nM.

For the compound `Cc1cc(Cl)ccc1Oc1ccc(C(F)(F)F)cc1C(=O)Nc1cccc(C(N)=O)c1` [Compound 284, N-(3-carbamoylphenyl)-2-(4-chloro-2-methylphenoxy)-5-(trifluoromethyl)benzamide], the IC50 stood at 43 nM.

In the case of `COc1ccc(Oc2ccc(C(F)(F)F)cc2C(=O)Nc2cccc(C(N)=O)c2)c(OC)c1` [Compound 281, N-(3-carbamoylphenyl)-2-(2,4-dimethoxyphenoxy)-5-(trifluoromethyl)benzamide], the IC50 was found to be 39 nM.

As to `COc1ccc(Oc2cc(Cl)c(Cl)cc2C(=O)Nc2cccc(C(N)=O)c2)c(OC)c1` [Compound 269, N-(3-carbamoylphenyl)-4,5-dichloro-2-(2,4-dimethoxyphenoxy)benzamide], the IC50 was determined as 9 nM.

Turning to `Cc1cccc(Oc2ccc(F)cc2Cl)c1C(=O)Nc1cccc(C(N)=O)c1` [Compound 275, N-(3-carbamoylphenyl)-2-(2-chloro-4-fluoro-phenoxy)-6-methyl-benzamide], the IC50 came to 165 nM.

Take `Cc1ccc(C(N)=O)cc1NC(=O)c1c(Oc2ccc(F)cc2Cl)cccc1C(F)(F)F` [Compound 255, N-(5-carbamoyl-2-methylphenyl)-2-(2-chloro-4-fluorophenoxy)-6-(trifluoromethyl)benzamide]: the IC50 was 7200 nM.

With `NC(=O)c1cccc(NC(=O)c2ccc(C(F)(F)F)cc2Oc2ccc(F)cc2)c1` [Compound 300, N-(3-carbamoylphenyl)-2-[4-fluorophenoxy]-4-(trifluoromethyl)benzamide], the IC50 was 61 nM.

Turning to `NC(=O)c1cccc(NC(=O)c2cc(C(F)(F)F)ccc2Oc2ccccc2Cl)c1` [Compound 283, N-(3-carbamoylphenyl)-2-(2-chlorophenoxy)-5-(trifluoromethyl)benzamide], the IC50 was determined as 82 nM.

For `COc1ccc(NC(=O)c2c(Oc3ccc(F)cc3Cl)cccc2C(F)(F)F)cc1C(N)=O` [Compound 253, N-(3-carbamoyl-4-methoxyphenyl)-2-(2-chloro-4-fluorophenoxy)-6-(trifluoromethyl)benzamide], the IC50 was 880 nM.

Turning to `COc1ccccc1Oc1ccc(C(F)(F)F)cc1C(=O)Nc1cccc(C(N)=O)c1` [Compound 287, N-(3-carbamoylphenyl)-2-(2-methoxyphenoxy)-5-(trifluoromethyl)benzamide], the IC50 is 84 nM.

Take `Cc1cc(F)ccc1Oc1cc(Cl)c(Cl)cc1C(=O)Nc1cccc(C(N)=O)c1` [Compound 267, N-(3-carbamoylphenyl)-4,5-dichloro-2-(4-fluoro-2-methyl-phenoxy)benzamide]: the IC50 was 7 nM.

On to `COc1ccc(Oc2cc(C(F)(F)F)ccc2C(=O)Nc2cccc(C(N)=O)c2)c(Cl)c1` [Compound 299, N-(3-carbamoylphenyl)-2-[2-chloro-4-(methoxy)phenoxy]-4-(trifluoromethyl)benzamide], for which the IC50 turned out to be 130 nM.

For the compound `NC(=O)c1cccc(NC(=O)c2cc(Cl)c(Cl)cc2Oc2ccc(F)cc2)c1` [Compound 268, N-(3-carbamoylphenyl)-4,5-dichloro-2-(4-fluorophenoxy)benzamide], the concentration for half-maximal inhibition (IC50) was 14 nM.

For `COc1ccc(Oc2cc(C(F)(F)F)ccc2C(=O)Nc2cccc(C(N)=O)c2)c(OC)c1` [Compound 301, N-(3-carbamoylphenyl)-2-[2,4-(dimethoxy)phenoxy]-4-(trifluoromethyl)benzamide], the IC50 turned out to be 57 nM.

Take `COc1ccc(Oc2cc(C(F)(F)C(F)(F)F)ccc2C(=O)Nc2cccc(C(N)=O)c2)cc1F` [Compound 250, N-(3-carbamoylphenyl)-2-(3-fluoro-4-methoxyphenoxy)-4-(1,1,2,2,2-pentafluoroethyl)benzamide]: the IC50 is 65 nM.

For the compound `COc1ccc(Oc2cc(Cl)c(Cl)cc2C(=O)Nc2cccc(C(N)=O)c2)cc1F` [Compound 271, N-(3-carbamoylphenyl)-4,5-dichloro-2-(3-fluoro-4-methoxy-phenoxy)benzamide], the IC50 stood at 20 nM.

With `NC(=O)c1cc(NC(=O)c2c(Oc3ccc(F)cc3Cl)cccc2C(F)(F)F)ccc1Cl` [Compound 254, N-(3-carbamoyl-4-chlorophenyl)-2-(2-chloro-4-fluorophenoxy)-6-(trifluoromethyl)benzamide], the IC50 came out at 260 nM.

Consider `COc1ccc(Oc2cc(C(F)(F)C(F)(F)F)ccc2C(=O)Nc2cccc(C(N)=O)c2)c(Cl)c1` [Compound 251, N-(3-carbamoylphenyl)-2-(2-chloro-4-methoxyphenoxy)-4-(1,1,2,2,2-pentafluoroethyl)benzamide], for which the IC50 was determined as 91 nM.

In the case of `COc1cc(F)ccc1Oc1cccc(C(F)(F)F)c1C(=O)Nc1cccc(C(N)=O)c1` [Compound 259, N-(3-carbamoylphenyl)-2-(4-fluoro-2-methoxyphenoxy)-6-(trifluoromethyl)benzamide], the IC50 was determined as 65 nM.

For the compound `COc1cc(Cl)ccc1Oc1ccc(C(F)(F)F)cc1C(=O)Nc1cccc(C(N)=O)c1` [Compound 286, N-(3-carbamoylphenyl)-2-(4-chloro-2-methoxyphenoxy)-5-(trifluoromethyl)benzamide], the IC50 is 20 nM.

On to `CC(C)(C)c1ccc(C(=O)Nc2ccnc(C(N)=O)c2)c(Oc2ccc(C(F)(F)F)nc2)c1` [Compound 266, 4-(4-(tert-butyl)-2-((6-(trifluoromethyl)pyridin-3-yl)oxy)benzamido)picolinamide], for which the IC50 amounted to 17000 nM.

Regarding `CC(C)Oc1ccccc1Oc1ccc(C(F)(F)F)cc1C(=O)Nc1cccc(C(N)=O)c1` [Compound 282, N-(3-carbamoylphenyl)-2-(2-isopropoxyphenoxy)-5-(trifluoromethyl)benzamide], the IC50 stood at 130 nM.

For the compound `Cc1cc(F)ccc1Oc1ccc(C(F)(F)F)cc1C(=O)Nc1ccc(C)c(C(N)=O)c1` [Compound 294, N-(3-carbamoyl-4-methylphenyl)-2-(4-fluoro-2-methylphenoxy)-5-(trifluoromethyl)benzamide], the half-inhibitory concentration (IC50) was found to be 37 nM.

`NC(=O)c1cccc(NC(=O)c2c(Oc3ccc(F)cc3)cccc2C(F)(F)F)c1` [Compound 257, N-(3-carbamoylphenyl)-2-(4-fluorophenoxy)-6-(trifluoromethyl)benzamide]: the half-maximal inhibitory concentration (IC50) is 415 nM.

Turning to `Cc1cc(F)ccc1Oc1ccc(C(F)(F)F)cc1C(=O)Nc1cccc(C(N)=O)c1` [Compound 296, N-(3-carbamoylphenyl)-2-(4-fluoro-2-methylphenoxy)-5-(trifluoromethyl)benzamide], the IC50 was 18 nM.

Turning to `COc1c(F)cccc1Oc1ccc(C(F)(F)F)cc1C(=O)Nc1cccc(C(N)=O)c1` [Compound 278, N-(3-carbamoylphenyl)-2-(3-fluoro-2-methoxyphenoxy)-5-(trifluoromethyl)benzamide], the IC50 came out at 21 nM.

For the compound `NC(=O)c1cccc(NC(=O)c2cc(C(F)(F)F)ccc2Oc2ccc(F)cc2Cl)c1` [Compound 289, N-(3-carbamoylphenyl)-2-(2-chloro-4-fluorophenoxy)-5-(trifluoromethyl)benzamide], the IC50 came out at 36 nM.
